In PMC8972196, “A Set of Experimentally Validated Decoys for the Human CC Chemokine Receptor 7 (CCR7) Obtained by Virtual Screening” (Frontiers in Pharmacology, 2022):
Like-named read-outs stand apart in the source and are kept apart here. Values belong to the compound of their own block, whether it stands above or below them.

Columns and labels:
human CCR5 = target: T1, human CCR5 (Homo sapiens, UniProt P51681); test: cell-based
T1 construct: expressed in transfected cells
Description: (§1) U87.CD4 cells that stably express either human CCR7, CXCR2, CCR5 or CXCR4 were seeded (20,000 cells/well) in gelatin-coated black-walled polystyrene 96-well plates with clear bottom and incubated overnight at 37°C and 5% CO2. […] Culture medium was removed, and cells were incubated for 45 min at room temperature in the dark. […] Exactly the same protocol was used to record calcium responses in Chinese hamster ovary (CHO)-K1 cells, upon stimulation with adenosine triphosphate (ATP, purchased from Sigma).

human CXCR4 = target: T2, human CXCR4 (Homo sapiens, UniProt P61073); test: CXCL12-induced calcium mobilization assay, U87.CD4 cells expressing CXCR4; format: cell-based; details: for effect on CXCR4 mediated calcium response: result in words
T2 construct: expressed in transfected cells
T2 sequence (P61073 whole entry): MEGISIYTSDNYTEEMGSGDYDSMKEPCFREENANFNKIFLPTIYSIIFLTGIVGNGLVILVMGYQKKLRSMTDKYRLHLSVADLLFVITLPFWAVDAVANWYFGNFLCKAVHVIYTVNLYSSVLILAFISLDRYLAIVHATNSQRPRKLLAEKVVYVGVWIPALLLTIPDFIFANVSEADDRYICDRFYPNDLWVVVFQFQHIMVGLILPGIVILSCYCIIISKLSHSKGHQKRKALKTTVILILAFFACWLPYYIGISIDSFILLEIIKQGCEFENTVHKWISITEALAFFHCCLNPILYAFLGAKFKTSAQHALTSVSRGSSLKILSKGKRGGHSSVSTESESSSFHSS
Description: U87.CD4 cells that stably express either human CCR7, CXCR2, CCR5 or CXCR4 were seeded (20,000 cells/well) in gelatin-coated black-walled polystyrene 96-well plates with clear bottom and incubated overnight at 37°C and 5% CO2. The next day, a fluorescent Ca^2+-sensitive dye solution (Fluo-2 AM) was prepared as described before ([Claes et al., 2018]). Culture medium was removed, and cells were incubated for 45 min at room temperature in the dark. Meanwhile, 96-well polypropylene plates containing 5-fold concentrated compound dilutions and 5-fold concentrated solution of chemokine ligands (CCL19, CXCL8, LD78-β, CXCL12, respectively; all purchased from PeproTech) were prepared for use with the FLIPR Tetra device (Molecular Devices) as described before ([Claes et al., 2018]). The antagonistic properties of the compounds were calculated based on their capacity to inhibit the Ca^2+ release induced by a fixed concentration of chemokine (i.e. 50 ng/mL final concentration for CCL19, CXCL8 and CXCL12 and 100 ng/ml for LD78-β), as described ([Claes et al., 2018]). Exactly the same protocol was used to record calcium responses in Chinese hamster ovary (CHO)-K1 cells, upon stimulation with adenosine triphosphate (ATP, purchased from Sigma).

human CCR7 [1] = target: T3, human CCR7 (Homo sapiens, UniProt P32248); test: CCR7 competition binding assay with CCL19^AF647 (flow cytometry, whole cells); details: for inhibition of CCL19^AF647 binding / CCR7 affinity: result in words
T3 construct: expressed in transfected cells
T3 sequence (P32248 25-378): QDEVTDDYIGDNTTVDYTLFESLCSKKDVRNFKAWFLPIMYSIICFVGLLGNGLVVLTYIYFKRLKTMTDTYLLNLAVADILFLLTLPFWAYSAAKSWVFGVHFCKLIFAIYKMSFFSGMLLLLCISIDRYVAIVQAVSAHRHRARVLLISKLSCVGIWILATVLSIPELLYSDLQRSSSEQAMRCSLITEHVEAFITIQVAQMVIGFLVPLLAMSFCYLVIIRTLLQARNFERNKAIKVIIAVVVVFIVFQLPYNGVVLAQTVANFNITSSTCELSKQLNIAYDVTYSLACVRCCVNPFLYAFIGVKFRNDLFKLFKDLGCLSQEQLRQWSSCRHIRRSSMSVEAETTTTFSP
Description: In brief, U87.CD4.CCR7 cells were pre-incubated with compound (at different concentrations) in 150 μL assay buffer [Hank’s balanced salt solution (HBSS), 20 mM HEPES and 0.5% Fetal Calf Serum] for 15 min at room temperature (RT) in the dark. Afterwards, 50 μL of CCL19^AF647 was added (25 ng/mL final concentration) and samples were incubated for another 30 min at RT, protected from light. Then, cells were washed twice with assay buffer and fixed in 1% paraformaldehyde in Dulbecco’s phosphate-buffered saline (DPBS).
Samples were immediately analyzed by flow cytometry (FACS Canto II, BD). Data were analysed using Flowjo. The percentage inhibition of CCL19^AF647 binding was calculated according to formula {1—[(MFIX–MFINC)/(MFIPC–MFINC)]} x 100, where MFIX is the mean fluorescence intensity (MFI) of the compound-treated sample, MFINC the MFI of the negative control (i.e., autofluorescence of untreated and unlabeled cells) and MFIPC the MFI of the positive control (i.e., cells exposed to CCL19^AF647 only). […] For each experiment the stain index (SI) was calculated as the ratio of the separation between MFIPC and MFINC, divided by two times the standard deviation of MFINC.

human CCR7 [2] = target: T3, human CCR7; test: CCL19-induced calcium mobilization assay, U87.CD4 cells expressing CCR7; format: cell-based
Method in brief: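 Calcium mobilization was recorded in U87.CD4 cells stably carrying human CXCR2 (stimulated with CXCL8), CCR7 (stimulated with CCL19) or CCR5. Cells were plated at 20,000 cells/well, cultured overnight at 37°C in 5% CO2, and incubated 45 min at room temperature in the dark before reading.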

[3] = system: ATP-induced Ca2+ release in CHO-K1 cells; test: ATP-induced calcium response in CHO-K1 cells; details: ATP 10 µM final concentration, Fluo-2
Description: Using CHO-K1 cells, exactly the same experimental set-up as for the chemokine receptor expressing U87 cells was applied, essentially including the same fluorescent calcium dye (Fluo-2) for cell loading.

human CXCR2 = target: T4, human CXCR2 (Homo sapiens, UniProt P25025); test: CXCL8-induced calcium mobilization assay, U87.CD4 cells expressing CXCR2; format: cell-based
T4 construct: expressed in transfected cells
T4 sequence (P25025 1-360): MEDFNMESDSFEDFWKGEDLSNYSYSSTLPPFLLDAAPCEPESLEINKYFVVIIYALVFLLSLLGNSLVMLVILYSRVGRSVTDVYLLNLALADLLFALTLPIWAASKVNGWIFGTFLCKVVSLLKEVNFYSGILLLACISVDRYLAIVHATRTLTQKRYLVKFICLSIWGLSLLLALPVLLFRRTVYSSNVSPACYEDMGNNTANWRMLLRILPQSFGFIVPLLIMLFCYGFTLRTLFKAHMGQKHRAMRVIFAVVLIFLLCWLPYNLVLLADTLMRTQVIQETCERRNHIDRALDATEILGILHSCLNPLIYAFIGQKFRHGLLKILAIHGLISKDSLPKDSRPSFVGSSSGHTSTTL
Description: as §1

human or murine CCR7 = system: human or murine CCR7; set-up: method as in Hull-Ryde et al., 2018; details: ref Hull-Ryde et al., 2018, cited from earlier work; for IC50: read-out: IC50, β-arrestin recruitment
CCR7 = system: CCR7; set-up: method as in Jaeger et al., 2019; details: result in words; ref Jaeger et al., 2019; cited from earlier work

T1 sequence (P51681 whole entry): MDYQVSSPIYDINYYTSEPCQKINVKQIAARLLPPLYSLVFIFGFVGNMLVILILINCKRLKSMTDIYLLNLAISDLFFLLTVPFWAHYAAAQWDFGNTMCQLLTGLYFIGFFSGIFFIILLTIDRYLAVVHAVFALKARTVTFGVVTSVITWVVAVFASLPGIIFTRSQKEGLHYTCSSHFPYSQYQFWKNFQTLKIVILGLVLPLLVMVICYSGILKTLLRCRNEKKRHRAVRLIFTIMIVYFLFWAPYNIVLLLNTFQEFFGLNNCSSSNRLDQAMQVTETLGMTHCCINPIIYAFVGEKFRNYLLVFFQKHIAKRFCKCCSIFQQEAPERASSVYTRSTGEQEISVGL

SMILES: CC[C@@H](Nc1c(Nc2cccc(C(=O)N(C)C)c2O)c(=O)c1=O)c1ccc(C)o1 [Navarixin]
effect on CCR5 mediated calcium response (human CCR5; result in words): no (or only very limited) effect
effect on CXCR4 mediated calcium response (human CXCR4): no (or only very limited) effect

SMILES: FC(F)(F)c1cc(NC(=S)Nc2cc(C(F)(F)F)cc(C(F)(F)F)c2)cc(C(F)(F)F)c1 [C040, S=C(NC1=CC(C(F)(F)F)=CC(C(F)(F)F)=C1)NC2=CC(C(F)(F)F)=CC(C(F)(F)F)=C2]
activity in CCR7 competition binding assay (human CCR7 [1]; highest concentration tested (25 µM)): inactive
inhibition of CCL19^AF647 binding / CCR7 affinity (human CCR7 [1]): completely devoid of activity
IC50 [μM] block CCL19 induced calcium signaling (human CCR7 [2]; CCL19-induced calcium signaling): assay interference
IC50 (human CCR7 [2]; inhibition of CCL19 induced intracellular calcium flux, Mean ± SD of at least three independent experiments, read-out: Calcium assay IC50): 3 to 18 µM
inhibition of calcium response induced by ATP [3]: dose-dependently inhibit
IC50 (human CCR5; Mean ± SD of at least three independent experiments, read-out: IC50, LD78-β-CCR5 Ca2+ response): 3 to 18 µM
IC50 (human CXCR4; Mean ± SD of at least three independent experiments, read-out: IC50, CXCL12-CXCR4 Ca2+ response): 3 to 18 µM
IC50 (human CXCR2; Mean ± SD of at least three independent experiments, read-out: IC50, CXCL8-CXCR2 Ca2+ response): 3 to 18 µM

effect on CXCR4 mediated calcium response (human CXCR4): no (or only very limited) effect
inhibition of CXCR2 mediated calcium mobilization (human CXCR2; result in words): inhibited
SMILES: Cc1ccc([C@@H](NC2=NS(=O)(=O)N=C2Nc2ccc(C)c(C(=O)N(C)C)c2O)C(C)(C)C)o1 [Cmp2105, reference compound]

SMILES: CC(C)CCC[C@@H](C)[C@H]1CC[C@H]2[C@@H]3CC[C@H]4C[C@@H](CCC=C(c5cc(Cl)c(O)c(C(=O)O)c5)c5cc(Cl)c(O)c(C(=O)O)c5)CC[C@]4(C)[C@H]3CC[C@]12C [cosalane]
IC50 (human or murine CCR7; CCL19 used as the natural CCR7 ligand): 200 nM
IC50 (human or murine CCR7; CCL21 used as the agonist): 2700 nM
activity against human versus murine CCR7 (human or murine CCR7; result in words): nearly identical activity against the human and murine CCR7 orthologues

SMILES: CCOC(=O)N1CCC(Nc2c(NCCOC)c(=O)c2=O)CC1 [CS-3, Ethyl 4-((2-((2-methoxyethyl)amino)-3,4-dioxocyclobut-1-en-1-yl)amino)piperidine-1-carboxylate, reference compound]
IC50 (human CCR7 [1]; inhibition of CCL19^AF647 binding, Mean ± SD of four independent experiments): > 50 µM
inhibition of CCL19^AF647 binding / CCR7 affinity (human CCR7 [1]): did not show any CCR7 affinity
IC50 (human CCR7 [2]): > 50 µM
CCR7 antagonism in calcium mobilization assay (human CCR7 [2]; CCL19-induced, result in words): inactive
Decoy – 0 Active – 1 (human CCR7 [2]; classification of tested compounds as decoy or active): 0
thermal stabilization of CCR7 (CCR7): hits in the thermofluor stability assay, albeit less potent than cmp2105 and navarixin
